Results on four compounds are retold here after patent publication US5189157A, “Antibacterial cephalosporin compounds” (Hoffmann La Roche Inc., priority 1988, dated 1993).

Assay type in all cases: cell-based
The test system of experiment [1] is P. aeruginosa 503-56. The experiment in a line: In Vitro MIC, Broth Dilution Method. The following applies: Pseudomonas aeruginosa, 50356. The source says: (§1) The in vitro activity of the compounds of the present invention as measured by the Minimum Inhibitory Concentration in micrograms/ml utilizing the Agar Well Diffusion Method, Agar Dilution Method or Broth Dilution Method against a variety of Gram-positive and Gram-negative organisms, is as follows:
(§2) In Vitro MIC (μg/ml) Broth Dilution Method
For orientation: Dilution methods test growth across graded concentrations, often in twofold steps.

The test system of experiment [2] is P. aeruginosa 5700. In words: In Vitro MIC, Broth Dilution Method. The following applies: Pseudomonas aeruginosa.
From the text: as §1, §2

In experiment [3] the test system is P. aeruginosa 765. In words: In Vitro MIC, Broth Dilution Method. The note with it: Pseudomonas aeruginosa.
From the text: as §1, §2

Experiment [4] has as its system P. aeruginosa 1973E. The experiment in a line: In Vitro MIC, Broth Dilution Method. The note with it: Pseudomonas aeruginosa.
From the text: as §1, §2

Experiment [5] concerns P. aeruginosa K77/WT. The experiment in a line: In Vitro MIC, Broth Dilution Method. The following applies: Pseudomonas aeruginosa.
From the text: as §1, §2

Experiment [6] concerns P. aeruginosa 8710. The experiment in a line: In Vitro MIC, Broth Dilution Method. The note with it: Pseudomonas aeruginosa.
From the text: as §1, §2

The test system of experiment [7] is P. aeruginosa 8780. In words: In Vitro MIC, Broth Dilution Method. The note with it: Pseudomonas aeruginosa, 8780, read-out: In Vitro MIC.
In experiment [8] the test system is P. aeruginosa ATCC 27853. In words: In Vitro MIC, Broth Dilution Method. The following applies: Pseudomonas aeruginosa, ATCC27853.
The test system of experiment [9] is P. aeruginosa 6148B. In words: In Vitro MIC, Broth Dilution Method. The following applies: Pseudomonas aeruginosa.
Experiment [10] relates to P. aeruginosa Stone 130. In words: In Vitro MIC, Broth Dilution Method. The following applies: Pseudomonas aeruginosa, STONE130.
The subject of experiment [11] is P. aeruginosa B. The experiment in a line: In Vitro MIC, Broth Dilution Method. The note with it: Pseudomonas aeruginosa.
Experiment [12] deals with E. cloacae 9570A. In words: In Vitro MIC, Agar Dilution Method. The following applies: Enterobacter cloacae.
From the text: as §1
(§3) In Vitro MIC (μg/ml) Agar Dilution Method

For experiment [13], the system named is S. aureus ATCC 25923. The experiment in a line: In Vitro MIC, Agar Dilution Method. The note with it: Staphylococcus aureus, ATCC25923.
From the text: as §1, §3

Experiment [14] has as its system S. aureus 1059B. The experiment in a line: In Vitro MIC, Agar Dilution Method. The note with it: Staphylococcus aureus.
From the text: as §1, §3
Background: In agar dilution the substance is mixed into plates at graded concentrations.

The test system of experiment [15] is K. pneumoniae A. The experiment in a line: In Vitro MIC, Agar Dilution Method. The note with it: Klebsiella pneumoniae.
From the text: as §1, §3

Experiment [16] relates to S. aureus Smith. In words: In Vitro MIC, Agar Dilution Method. The following applies: Staphylococcus aureus.
From the text: as §1, §3

The test system of experiment [17] is P. aureus Giorgid. In words: In Vitro MIC, Agar Dilution Method.
From the text: as §1, §3

Experiment [18] concerns E. cloaca P99. The experiment in a line: In Vitro MIC, Agar Dilution Method.
From the text: as §1, §3

Experiment [19] deals with P. aeruginosa 130. In words: In Vitro MIC, Agar Dilution Method. The note with it: Pseudomonas aeruginosa.
From the text: as §1, §3

Experiment [20] has as its system P. mirabilis 190. The experiment in a line: In Vitro MIC, Agar Dilution Method. The note with it: Proteus mirabilis.
From the text: as §1, §3

The test system of experiment [21] is S. marscescens SM. The experiment in a line: In Vitro MIC, Agar Dilution Method.
From the text: as §1, §3

In experiment [22] the test system is E. coli 48. The experiment in a line: In Vitro MIC, Agar Dilution Method. The note with it: Escherichia coli.
From the text: as §1, §3

For experiment [23], the system named is P. aeruginosa Stone 130. The experiment in a line: In Vitro MIC, Agar Dilution Method. The note with it: Pseudomonas aeruginosa, STONE130.
From the text: as §1, §3

The subject of experiment [24] is P. aeruginosa 185/H. In words: In Vitro MIC, Agar Dilution Method. The following applies: Pseudomonas aeruginosa.
From the text: as §1, §3

In experiment [25] the test system is P. aeruginosa K77/61. In words: In Vitro MIC, Broth Dilution Method. The note with it: Pseudomonas aeruginosa, K77/61, read-out: In Vitro MIC.
From the text: as §1, §2

Counter-ions that a name gives are not always drawn.

`CO/N=C(\C(=O)N[C@@H]1C(=O)N2C(C(=O)O)=C(COC(=O)c3ccc(O)c(O)c3)CS[C@H]12)c1csc(N)n1` [Compound A, [6R-[6 alpha,7 beta(Z)]]-7-[[(2-amino-4-thiazolyl)(methoxyimino)acetyl]amino]-3-[[[(3,4-dihydroxyphenyl)carbonyl]oxy]methyl]-8-oxo-5-thia-1-azabicyclo[4.2.0]oct-2-ene-2-carboxylic acid monosodium salt]: the MIC (usually the lowest concentration found to suppress growth) in experiment [1] amounted to 4 µg/mL; in [2] it was 8 µg/mL; in [3], 4 µg/mL; in [4] it was 4 µg/mL; in [5], 1 µg/mL; in experiment [6], 2 µg/mL. The MIC in [7] amounted to 0.5 µg/mL; in [8] it was 8 µg/mL; in experiment [9], 2 µg/mL; in [10] it was 2 µg/mL; in experiment [11], 2 µg/mL.
Regarding `CC(=O)Oc1ccc(C(=O)OCC2=C(C(=O)O)N3C(=O)[C@@H](NC(=O)/C(=N\OCC(N)=O)c4csc(N)n4)[C@H]3SC2)cc1OC(C)=O` [Compound B, [6R-[6 alpha,7 beta(Z)]]-3-[[[3,4-bis(acetyloxy)benzoyl]oxy]methyl]-7-[[[2-amino-4-thiazolyl][(2-amino-2-oxoethoxy)imino]acetyl]amino]-8-oxo-5-thia-1-azabicyclo[4.2.0]oct-2-ene-2-carboxylic acid monosodium salt], the MIC in [12] was determined as 1 µg/mL; in experiment [13], 2 µg/mL; in experiment [14] it was 4 µg/mL; in experiment [15], 0.125 µg/mL; in experiment [16] it was 4 µg/mL; in [17], 8 µg/mL. The MIC in experiment [18] stood at 32 µg/mL; in [19], 4 µg/mL; in experiment [20] it was 0.063 µg/mL; in experiment [21], 1 µg/mL; in experiment [22] it was 0.031 µg/mL; in experiment [23], 4 µg/mL. In experiment [24], this compound gave an MIC of 2 µg/mL.
Consider `CCN1CCN(C(=O)N[C@@H](C(=O)N[C@@H]2C(=O)N3C(C(=O)O)=C(COC(=O)c4ccc(O)c(O)c4)CS[C@H]23)c2ccccc2)C(=O)C1=O` [Compound D, [6R-[6 alpha,7 beta(R*)]]-7-[[[[(4-ethyl-2,4-dioxo-1-piperazinyl)carbonyl]amino]phenylacetyl]amino]-3-[[(3,4-dihydroxy)benzoyl]oxy]-methyl]-8-oxo-5-thia-1-azabicyclo(4.2.0)oct-2-ene-2-carboxylic acid monosodium salt], for which the MIC in experiment [6] stood at 0.125 µg/mL.
On to `CC(C)(O/N=C(\C(=O)N[C@@H]1C(=O)N2C(C(=O)O)=C(COC(=O)c3ccc(O)c(O)c3)CS[C@H]12)c1csc(N)n1)C(=O)O` [Compound C, [6R-[6 alpha,7 beta(Z)]]-7-[[(2-amino-4-thiazolyl)(1-carboxy-1-methylethoxy)-imino]acetyl]amino]-3-[[(3,4-dihydroxybenzoyl)oxy]methyl]-8-oxo-5-thia-1-azabicyclo[4.2.0]oct-2-ene-2-carboxylic acid disodium salt], for which the MIC in experiment [2] was 2 µg/mL; in [3], 8 µg/mL; in [4], 2 µg/mL; in experiment [25], greater than 0.008 µg/mL; in experiment [6], 0.063 µg/mL; in experiment [7] it was greater than 0.008 µg/mL. It took 0.125 µg/mL to inhibit growth in experiment [11] (MIC).
